{
  "source": "patent US4396598A",
  "about": "“Triiodoisophthalamide X-ray contrast agent” (Mallinckrodt, Inc., priority 1982, dated 1983)",
  "key": {"[1]": {"test": "Radiographic observations, whole body radiographs in mouse after intravenous administration", "assay_type": "in vivo", "conditions": "male mouse, i.v. (lateral tail vein), 10,000 mg I/kg (40% I solution), immediately and 5 minutes after administration", "method": "A male mouse (23 g) was anesthetized with sodium pentobarbital (40 mg/kg, i.p.; Nembutal®, Abbott Laboratories). The N,N'-bis(2,3-dihydroxypropyl)-5-N-(2-hydroxyethyl)glycolamido-2,4,6-triiodoisophthalamide prepared by method of Example 1, was administered at a dose of 10,000 mg I/kg (40% I solution) via a lateral tail vein of the mouse at a rate of 1 ml/minute."}, "[2]": {"test": "Radiographic observations, lateral radiograph of head and thorax in rat after intracisternal injection", "assay_type": "in vivo", "conditions": "male rat, 137 mg I/kg (40% I solution), immediately after administration"}, "Swiss mice": {"test_system": "Swiss mice", "test": "Acute Intravenous Toxicity in Mice", "assay_type": "in vivo", "conditions": "i.v., 40% I, seven day observation", "method": "(§1) The following pharmacological studies were conducted on N,N'-bis(2,3-dihydroxypropyl)-5-N-(2-hydroxyethyl)glycolamido-2,4,6-triiodoisophthalamide (PRODUCT), prepared by the method of Example 1.\nA solution of the PRODUCT (40% I) was injected into the lateral tail vein of young adult male and female Swiss mice at a rate of 1 ml/min. […]"}, "Sprague Dawley rats": {"test_system": "Sprague Dawley rats", "test": "Acute Intracisternal Toxicity in Rats", "assay_type": "in vivo", "conditions": "concentration 450, two day observation, 95% confidence limits 874-1,385", "method": "as §1\n(§2) The technique described by Melartin, et al. (Invest. Radiol. 5: 13-21, 1970) was utilized to evaluate lethal effects of a solution of the PRODUCT after injection into cerebrospinal fluid at the cisterna magna. Young adult male Sprague Dawley rats were used. After dosing, the animals were housed individually and observed for immediate reactions and periodically for a two day observation period. The LD50 value was calculated by the method of Litchfield and Wilcoxin (J. Pharmacol. Exp. Therap. 96: 99-113, 1949) with the following results: […]"}, "[3]": {"test": "Acute Intracisternal Toxicity in Rats", "assay_type": "in vivo, Sprague Dawley rats", "conditions": "rat, in vivo, concentration 450, two day observation, 95% confidence limits 1,853-2,936", "method": "as §1, §2"}},
  "data": [
    {"smiles": "O=C(NCC(O)CO)c1c(I)c(C(=O)NCC(O)CO)c(I)c(N(CCO)C(=O)CO)c1I", "note": "(centres unmarked) [PRODUCT, N,N'-Bis(2,3-dihydroxypropyl)-5-N-(2-hydroxyethyl)glycolamido-2,4,6-triiodoisophthalamide]", "values": [
      {"measurement": "opacification on whole body radiographs", "setting": "[1]", "value": "opacification of the liver and cardiovascular and renal excretory systems"},
      {"measurement": "visualization on lateral radiograph of the head and thorax", "setting": "[2]", "value": "good visualization of the cisterna magna, basal cisterns, and cervical subarachnoid space"},
      {"measurement": "NUMBER OF MORTALITIES/NUMBER DOSED", "setting": "Swiss mice; 18,500 mg I/kg (39,220 mg/kg)", "value": "0/8"},
      {"measurement": "NUMBER OF MORTALITIES/NUMBER DOSED", "setting": "Swiss mice; 20,000 mg I/kg (42,400 mg/kg)", "value": "5/8"},
      {"measurement": "NUMBER OF MORTALITIES/NUMBER DOSED", "setting": "Swiss mice; 21,500 mg I/kg (45,580 mg/kg)", "value": "10/10"},
      {"measurement": "LD50", "setting": "Swiss mice; mice", "value": "about 20,000 mg I/kg"},
      {"measurement": "LD50 (95% Confidence Limits)", "setting": "Sprague Dawley rats", "value": "1,100 mg I/kg"},
      {"measurement": "LD50 at 48 h", "setting": "[3]", "value": 2330, "unit": "mg/kg"}
    ]}
  ]
}
